Reference: US20090298938A1, “USE OF SEMI SYNTHETIC ANALOGUES OF BOSWELLIC ACIDS FOR ANTICANCER ACTIVITY” (COUNCIL OF SCIENTIFIC & INDUSTRIAL RESEARCH, priority 2008, published 2009)
Entries after “also recorded” stand apart in the source; their conditions may differ.

What was measured:
[1] = system: HL-60 cells; test: Inhibition of cell proliferation, MTT assay; type: cell-based, human; conditions: HL-60, 48 hours
Procedure: FIGS. 1A-1B. FIG. 1A depicts the main triterpenoic acid constituents of the gum exudates from Boswellia serrata, the source of boswellic acids, represented by boswellic acid, acetyl boswellic acid, 11-keto-boswellic acids, acetyl-11-keto-boswellic acid. […] Cell proliferation analysis was performed in HL-60 cells using the MTT method described in the Examples section. Cells were incubated with each formula 1 analog for 48 hours at indicated concentration and thereafter, the mitochondiral competence of MTT reduction as an index of cell viability was determined. The optical density (OD) of the untreated control was taken as 100% viability. […] This analog, as a prototype, was selected for detailed investigations. Where a=compound of formula 1, R3=COCH2CH2CH3, R1=H, R4=R5=H, b=compound of formula 1, R3=COCH2CH3, R1=H, X=H2, c=compound of formula 1, R3=COCH2CH2CH3, R1=H, R4+R5=O, d=compound of formula 1, R1=H, R3=COCH2CH3, R4=R5=H, e=compound of formula 1, R3=COCH2CH2CH3, R1=H, R4=R5=H, f=β-boswellic acid
Human leukemia cells HL-60 were grown in suspension in 96-well culture plate and were incubated with different concentrations of the test analogs for 48 hr. The cells were then incubated with MTT and the MTT-formazon formed is eluted with DMSO, and OD measured in ELISA Reader [Shashi et al., 2006]. The intensity of the color formed in the untreated control wells relates to 100% cell growth. […]

[2] = system: HL-60 cells; test: Reactive oxygen species (peroxides), DCFH-DA flow cytometry; type: cell-based, human
Procedure: FIG. 4. Boswellic acid analogs produce early generation of reactive oxygen species. In order to determine the intracellular content of intracellular peroxides, HL-60 cells in both treated and untreated control groups of 1×10^6 cells were incubated with […] of DCFH-DA for 30 min prior to termination of a 6 hr treatment with the indicated concentrations of compound designated “c” which is the compound of formula 1, wherein R3=COCH2CH2CH3, […], R4+R5=O. Treatment with the compound designated “c” was associated with an increase in DCFH-DA derived fluorescence. The compound of formula 1 where R3=COCH2CH2CH3, […], R4+R5=O was taken as a prototype to investigate the mechanism of cell death mediated by induction of apoptosis. […] At the highest concentration used the peroxide generation was relatively of low order because of ROS associated cell death. BSO was used as positive control. The endogenous generation of peroxides was measured using a non-fluorescent probe DCFH-DA which upon entering the cell is deesterified to DCFH which is oxidized by the reactive oxygen species to a fluorescent product DCF that remains entrapped within the cells offering analysis by flow cytometery [[…] et al, 2006]. […] Thereafter cells were washed and stained for 1 hr with DCFH-DA and analysed on flow cytometer. […]

[3] = system: HL-60 cells; test: Endogenous nitric oxide, DAF-2-DA flow cytometry; type: cell-based, human; conditions: HL-60, 4 hr
Procedure: FIG. 5. Copious early endogenous formation of nitric oxide by compound of formula 1 where R3=COCH2CH2CH3, R1=H, R4+R5=O in HL-60 cells. Nitric Oxide (NO) production was measured by flow cytometry in the FL1 channel using DAF-2-DA (an NO probe) after exposing HL-60 cells for 4 hours to indicated concentrations of SS-145. To investigate the contribution of iNOS to NO production, cells were pre-incubated with iNOS inhibitor sMIT (0.5 mM) for 1 hour prior to treatment with a compound designated “c” (a compound of formula 1 wherein R3=COCH2CH2CH3, R1=H, R4+R5=O). NO and peroxide generation are the early events leading to oxidative stress in the cells. […] It is possible that NO stimulated mitochondrial superoxide generation which together with NO may form peroxynitrite, a dangerous species in producing oxidative damage to the cells and responsible for production of apoptosis
Measurement of in situ NO generation involved the use of a fluorescent probe diaminofluoresceine-2-diacetate, which is permeated easily into the cells. Once inside the cell it binds NO soon it is formed and emits fluorescence [H. Kojima et al, 1998]. For this purpose, the HL-60 cells were incubated with DAF-2-DA for 30 min before being incubated with the indicated concentration of SS-145 for 4 hr. Cells were analyzed on flow cytometer in FL-1 channel for NO. […]

[4] = system: Ehrlich Ascitic Carcinoma solid tumor; test: Ehrlich ascitic tumor (solid) growth inhibition in mice; type: in vivo, Swiss albino mice; conditions: 9 days, evaluated day 13
Procedure: FIG. 9. Tumor growth inhibition by boswellic acid analogs. Mice treated intraperitoneally with a compound (designated “c”) of formula 1, wherein R3=COCH2CH2CH3, R1=H, R4+R5=O, have shown 22% tumor growth inhibition at a dose of about 50 mg/kg of body weight, and 41% tumor growth inhibition at a dose of 100 mg/kg of body weight.
Swiss albino mice of 6-8 weeks, weighing 18-23 g of single sex were used. For the initiation of experiment, 1×10^7 cells of EAC (Ehrlich Ascitic Carcinoma) cells were transplanted intramuscularly (i.m.) in 32 mice for the development of solid tumors. The day of tumor transplantation was assigned as day 0. Next day (day-1) animals were randomly selected and divided into four groups having equal number of mice in each group of similar body wt. Groups I and II were treated with compound of formula 1 where R3=COCH2CH2CH3, R1=H, R4+R5=O at the dose of 50 mg/kg b, wt and 100 mg/kg b. wt. intraperitoneally, respectively. Group III received 0.2 ml of 0.85% normal saline and served as normal control while group IV serving as positive control was treated with 5-FU (22 mg/kg b. wt.) intraperitoneally. The total duration of treatment was of 9 days. The evaluation of effect of treatment on tumor was done on 13th day. Ehrlich ascites cells (1×10^7) were injected intramuscularly in the right thigh muscles and on the following day animals started receiving treatment intraperitoneally in 0.5% Tween-20 daily at the indicated doses for 9 days. The growth of tumor and the efficacy of compound of formula 1, where R3=COCH2CH2CH3, R1=H, R4+R5=O in inhibiting tumor growth were evaluated on day 13 in terms of the weight of the tumor in treated and control groups count. The determination of solid tumor growth inhibition against EAT was calculated as percent tumor growth regression according to the following: […]

In the case of `CCCC(=O)OC1CCC2(C)C(CCC3(C)C2C(=O)C=C2C4C(C)C(C)CCC4(C)CCC23C)C1(C)C(=O)O` (stereo not drawn) [R3=COCH2CH2CH3, R1=H, R4+R5=O], the “effect on cell proliferation compared to other analogs” value [1] is reported as “marginally stronger effect compared to other analogs”, the “peroxide positive cell population” value ([2]; HL-60, 50 μg/ml, 6 hr) is reported as 79% and the “ROS / peroxide generation (concentration dependence)” value ([2]; HL-60, 6 hr, DCFH-DA) is reported as “concentration related increase in ROS generation; also recorded: dose dependent increase”. For the same compound, the nitric oxide generation [3] was “early generation of NO; also recorded: all the cells formed NO within 6 hr irrespective of the concentration”, the tumor growth inhibition ([4]; 50 mg/kg intraperitoneally) was 22% and the tumor growth inhibition ([4]; 100 mg/kg intraperitoneally) was 41%.
